Results on 42 compounds are retold here after the PolyMetriX glass transition set.

SMILES strings stand for the structures.

In the case of `*/C=C(/*)c1c(C)cc(C(C)(C)C)cc1C` (repeat unit), the glass transition temperature is 200.00 °C.

Take `*C(=O)Nc1ccc(Oc2ccc(C(c3ccc(Oc4ccc(NC(=O)c5ccc6c(c5)C(=O)N(c5ccc(Oc7cccc8c(Oc9ccc(N%10C(=O)c%11ccc(*)cc%11C%10=O)cc9)cccc78)cc5)C6=O)cc4)cc3)(C(F)(F)F)C(F)(F)F)cc2)cc1` (repeat unit): the glass transition temperature amounted to 231.00 °C.

In turn, `*C(=O)Nc1ccc(Oc2ccc(C3(c4ccc(Oc5ccc(NC(=O)c6ccc7c(c6)C(=O)N(c6ccc(Oc8ccc(Oc9ccc(N%10C(=O)c%11ccc(*)cc%11C%10=O)cc9)cc8)cc6)C7=O)cc5)cc4)NC(=O)c4ccccc43)cc2)cc1` (repeat unit) returned a glass transition temperature of 284.00 °C.

For `*C(=O)Nc1ccc(Oc2ccc(C3(c4ccc(Oc5ccc(NC(=O)c6ccc7c(c6)C(=O)N(c6ccc(Oc8ccc(S(=O)(=O)c9ccc(Oc%10ccc(N%11C(=O)c%12ccc(*)cc%12C%11=O)cc%10)cc9)cc8)cc6)C7=O)cc5)cc4)NC(=O)c4ccccc43)cc2)cc1` (repeat unit), the glass transition temperature was found to be 283.00 °C.

`*C(=O)Nc1ccc(Oc2ccc(NC(=O)c3ccc(N4C(=O)c5ccc(*)cc5C4=O)cc3)cc2)cc1` (repeat unit) returned a glass transition temperature of 296.00 °C.

Turning to `*C(=O)Nc1ccc(Oc2ccc(NC(=O)c3ccc4c(c3)C(=O)N(c3ccc(Cc5ccc(N6C(=O)c7ccc(*)cc7C6=O)cc5)cc3)C4=O)cc2)cc1` (repeat unit), the glass transition temperature was determined as 251.00 °C.

`*C(=O)Nc1ccc(Oc2ccc(NC(=O)c3ccc4c(c3)C(=O)N(c3ccc(Oc5ccc(C6(c7ccc(Oc8ccc(N9C(=O)c%10ccc(*)cc%10C9=O)cc8)cc7)CC7CC6C6CCCC76)cc5)cc3)C4=O)cc2)cc1` (repeat unit) came in with a glass transition temperature of 250.00 °C.

As for `*C(=O)Nc1ccc(Oc2ccc(NC(=O)c3ccc4c(c3)C(=O)N(c3ccc(Oc5ccc(N6C(=O)c7ccc(*)cc7C6=O)cc5)cc3)C4=O)cc2)cc1` (repeat unit), the glass transition temperature came out at 282.00 °C.

The compound `*C(=O)Nc1ccc(Oc2ccc(NC(=O)c3ccc4c(c3)C(=O)N(c3ccc(Oc5ccc(N6C(=O)c7ccc(*)cc7C6=O)cc5-c5ccccc5)c(-c5ccccc5)c3)C4=O)cc2)cc1` (repeat unit) returned a glass transition temperature of 345.00 °C.

`*C(=O)Nc1ccc(Oc2ccc(NC(=O)c3ccc4c(c3)C(=O)N(c3ccc(Oc5ccc(N6C(=O)c7ccc(*)cc7C6=O)cc5-c5ccccc5)c(-c5ccccc5)c3)C4=O)cc2-c2ccccc2)c(-c2ccccc2)c1` (repeat unit) showed a glass transition temperature of 369.00 °C.

`*C(=O)Nc1ccc(Oc2cccc(NC(=O)c3ccc4c(c3)C(=O)N(c3ccc(Oc5ccc(C6(c7ccc(Oc8ccc(N9C(=O)c%10ccc(*)cc%10C9=O)cc8)cc7)NC(=O)c7ccccc76)cc5)cc3)C4=O)c2)cc1` (repeat unit): the glass transition temperature came to 302.00 °C.

Compound `*Oc1ccc(C(=O)c2ccc(C(=O)c3ccc(Oc4ccc(Cc5ccc(*)cc5)cc4)cc3)cc2)cc1` (repeat unit) yielded a glass transition temperature of 120.00 °C.

The compound `*Oc1ccc(NC(=C(C#N)C#N)c2ccc(-c3ccc(-c4ccc(C(Nc5ccc(*)cc5)=C(C#N)C#N)cc4)cc3)cc2)cc1` (repeat unit) returned a glass transition temperature of 240.00 °C.

In the case of `*Oc1ccc(NC(=C(C#N)C#N)c2ccc3cc(C(Nc4ccc(*)cc4)=C(C#N)C#N)ccc3c2)cc1` (repeat unit), the glass transition temperature stood at 280.00 °C.

As to `*Oc1ccc(NC(=O)Nc2ccccc2CCc2ccccc2NC(=O)Nc2ccc(*)cc2)cc1` (repeat unit), the glass transition temperature was 232.00 °C.

For `*Oc1ccc(NC(=O)c2cc(C(=O)Nc3ccc(*)cc3)cc(C(F)(F)C(F)(F)C(F)(F)C(F)(F)C(F)(F)C(F)(F)C(F)(F)C(F)(F)F)c2)cc1` (repeat unit), the glass transition temperature amounted to 230.00 °C.

`*Oc1ccc(NC(=O)c2cc(C(=O)Nc3ccc(*)cc3)cc(S(=O)(=O)c3ccccc3)c2)cc1` (repeat unit) gave a glass transition temperature of 279.00 °C.

In turn, `*Oc1ccc(NC(=O)c2ccc(-c3ccc(C(=O)Nc4ccc(Oc5ccc(C6(c7ccc(*)cc7)CC7CCC6C7)cc5)cc4)cc3)cc2)cc1` (repeat unit) displayed a glass transition temperature of 296.00 °C.

As for `*Oc1ccc(NC(=O)c2ccc(C(=O)Nc3ccc(Oc4ccc(C(=O)c5ccc(*)cc5)cc4)cc3)cc2)cc1` (repeat unit), the glass transition temperature came out at 160.00 °C.

Regarding `*Oc1ccc(NC(=O)c2ccc(P(=O)(c3ccccc3)c3ccc(C(=O)Nc4ccc(*)cc4)cc3)cc2)cc1` (repeat unit), the glass transition temperature is 254.00 °C.

`*Oc1ccc(NC(=O)c2ccc3cc(C(=O)Nc4ccc(Oc5ccc(C6(c7ccc(*)cc7)CC7CCC6C7)cc5)cc4)ccc3c2)cc1` (repeat unit) came in with a glass transition temperature of 276.00 °C.

On to `*Oc1ccc(NC(=O)c2cccc(C(=O)Nc3ccc(Oc4ccc(C(=O)c5ccc(*)cc5)cc4)cc3)c2)cc1` (repeat unit), for which the glass transition temperature was 145.00 °C.

`*Oc1ccc(NC(=O)c2cccc(C(=O)Nc3ccc(Oc4ccc(C5(c6ccc(*)cc6)CC6CCC5C6)cc4)cc3)c2)cc1` (repeat unit): the glass transition temperature came to 256.00 °C.

As for `*Oc1ccc(Oc2ccc(C(=O)Nc3ccc(Oc4ccc(S(=O)(=O)c5ccc(Oc6ccc(NC(=O)c7ccc(*)cc7)cc6)cc5)cc4)cc3)cc2)cc1` (repeat unit), the glass transition temperature is 220.00 °C.

In the case of `*Oc1ccc(Oc2ccc(NC(=O)c3ccc(Oc4ccc(Oc5ccc(C(=O)Nc6ccc(*)cc6)cc5)cc4-c4ccccc4)cc3)cc2)cc1` (repeat unit), the glass transition temperature was 209.00 °C.

For `*Oc1ccc(Oc2ccc(NC(=O)c3ccc(Oc4ccc(Oc5ccc(C(=O)Nc6ccc(*)cc6)cc5)cc4-c4ccccc4)cc3)cc2)cc1-c1ccccc1` (repeat unit), the glass transition temperature is 200.50 °C.

Consider `*Oc1ccc(S(=O)(=O)c2ccc(Oc3ccc(NC(=O)c4cccc(C(=O)Nc5ccc(*)cc5)c4)cc3)cc2)cc1` (repeat unit), for which the glass transition temperature was 260.00 °C.

`*Oc1cccc(Oc2ccc(NC(=O)c3ccc(Oc4cccc(Oc5ccc(C(=O)Nc6ccc(*)cc6)cc5)c4)cc3)cc2)c1` (repeat unit) registered a glass transition temperature of 176.50 °C.

Turning to `*Oc1cccc2ccc(Oc3ccc(NC(=O)c4ccc(Oc5ccc(C(=O)Nc6ccc(*)cc6)cc5)cc4)cc3)cc12` (repeat unit), the glass transition temperature was found to be 236.00 °C.

Turning to `*c1ccc(-c2cc(-c3ccc(-c4ccccc4)cc3)cc(-c3ccc(N4C(=O)c5ccc(NC(=O)Nc6ccc(Oc7ccc(NC(=O)Nc8ccc9c(c8)C(=O)N(*)C9=O)cc7)cc6)cc5C4=O)cc3)n2)cc1` (repeat unit), the glass transition temperature turned out to be 241.00 °C.

In turn, `*c1ccc(-c2ccc(-c3nc4cc(Oc5ccc(NC(=O)c6ccc7c(c6)C(=O)N(c6ccc(C(c8ccc(N9C(=O)c%10ccc(C(=O)Nc%11ccc(Oc%12ccc%13nc(-c%14ccccc%14)c(*)nc%13c%12)cc%11)cc%10C9=O)cc8)(C(F)(F)F)C(F)(F)F)cc6)C7=O)cc5)ccc4nc3-c3ccccc3)cc2)cc1` (repeat unit) returned a glass transition temperature of 290.00 °C.

With `*c1ccc(-c2nc3cc(Oc4ccc(NC(=O)c5ccc6c(c5)C(=O)N(c5ccc(C(c7ccc(N8C(=O)c9ccc(C(=O)Nc%10ccc(Oc%11ccc%12nc(-c%13ccccc%13)c(*)nc%12c%11)cc%10)cc9C8=O)cc7)(C(F)(F)F)C(F)(F)F)cc5)C6=O)cc4)ccc3nc2-c2ccccc2)cc1` (repeat unit), the glass transition temperature was 293.00 °C.

As to `*c1ccc(Oc2ccc(-c3nc4cc(Oc5ccc(NC(=O)c6cc(C(=O)Nc7ccc(Oc8ccc9nc(-c%10ccccc%10)c(*)nc9c8)cc7)cc(N7C(=O)c8c(Cl)c(Cl)c(Cl)c(Cl)c8C7=O)c6)cc5)ccc4nc3-c3ccccc3)cc2)cc1` (repeat unit), the glass transition temperature was found to be 295.00 °C.

As to `*c1ccc(Oc2ccc(-c3nc4cc(Oc5ccc(NC(=O)c6cc(C(=O)Nc7ccc(Oc8ccc9nc(-c%10ccccc%10)c(*)nc9c8)cc7)cc(N7C(=O)c8ccccc8C7=O)c6)cc5)ccc4nc3-c3ccccc3)cc2)cc1` (repeat unit), the glass transition temperature turned out to be 260.00 °C.

Take `*c1ccc(Oc2ccc(C(=O)c3ccc(C(=O)c4ccc(Oc5ccc(-c6nc(-c7ccc(-c8nc(*)c(-c9ccccc9)[nH]8)cc7)[nH]c6-c6ccccc6)cc5)cc4)cc3)cc2)cc1` (repeat unit): the glass transition temperature came to 278.00 °C.

In turn, `*c1ccc(Oc2ccc(C(=O)c3ccc(C(=O)c4ccc(Oc5ccc(-c6nc7ccccc7n6-c6ccc(-n7c(*)nc8ccccc87)cc6)cc5)cc4)cc3)cc2)cc1` (repeat unit) displayed a glass transition temperature of 238.00 °C.

With `*c1ccc(Oc2ccc(NC(=O)c3ccc(C(=O)Nc4ccc(Oc5ccc(-c6nnc(*)o6)cc5)cc4)c(Oc4ccccc4)c3)cc2)cc1` (repeat unit), the glass transition temperature is 245.00 °C.

For the compound `*c1ccc2c(c1)C(=O)N(c1ccc(C(=O)Nc3ccc(Oc4ccc(C(c5ccc(Oc6ccc(NC(=O)c7ccc(N8C(=O)c9ccc(C(*)(C(F)(F)F)C(F)(F)F)cc9C8=O)cc7)cc6)cc5)(C(F)(F)F)C(F)(F)F)cc4)cc3)cc1)C2=O` (repeat unit), the glass transition temperature amounted to 293.00 °C.

For `*c1ccc2c(c1)C(=O)N(c1ccc(C(=O)Nc3ccc(Oc4ccc(NC(=O)c5ccc(N6C(=O)c7ccc(C(*)(C(F)(F)F)C(F)(F)F)cc7C6=O)cc5)cc4)cc3)cc1)C2=O` (repeat unit), the glass transition temperature worked out at 322.00 °C.

For `*c1ccc2c(c1)C(=O)N(c1cccc(C(=O)Nc3ccc(Oc4ccc(NC(=O)c5cccc(N6C(=O)c7ccc(C(*)(C(F)(F)F)C(F)(F)F)cc7C6=O)c5)cc4)cc3)c1)C2=O` (repeat unit), the glass transition temperature is 298.00 °C.

As to `*c1ccc2c(c1)C(=O)N(c1cccc(C(=O)Nc3ccc(Oc4ccc(Oc5ccc(NC(=O)c6cccc(N7C(=O)c8ccc(C(*)(C(F)(F)F)C(F)(F)F)cc8C7=O)c6)cc5)cc4)cc3)c1)C2=O` (repeat unit), the glass transition temperature was 283.00 °C.

In the case of `*c1ccc2c(c1)C(=O)N(c1cccc(C(=O)Nc3ccc(Oc4cccc(Oc5ccc(NC(=O)c6cccc(N7C(=O)c8ccc(C(*)(C(F)(F)F)C(F)(F)F)cc8C7=O)c6)cc5)c4)cc3)c1)C2=O` (repeat unit), the glass transition temperature came to 264.00 °C.
